According to US7078178B2, “Methods of altering calcium transport” (priority 1999, dated 2006):

What was measured:
[1] = system: CaT1 mRNA; test: Northern analysis of CaT1 mRNA in rat duodenum in vivo
Method: Northern analysis procedures were as follows. Poly(A)^+ RNA (3 μg) from rat tissues were electrophoresed in formaldehyde-agarose gels and transferred to nitrocellulose membranes. The filters were probed with ^32P-labeled full-length CaT1 cDNA, hybridized at 42° C. with a solution containing 50% formamide, 5×SSPE, 2× Denhardt's solution, 0.1% SDS and 100 μg/ml denatured salmon sperm DNA (and washed with 5×SSC/0.1% SDS at 50° C. for 2×30 minutes and 0.1×SSC at 65° C. for 3×30 minutes. Autoradiography was performed at −80° C. for 1 to 2 days.

[2] = target: T1, CaT1 (Rattus norvegicus, UniProt Q9R186); test: Two-microelectrode voltage clamp of oocytes expressing CaT1; assay type: cell-based; conditions: for current as percentage of the current evoked by 5 mM Ca^2+: 5 mM cation, EGTA-injected oocytes clamped at −50 mV, n=17; for currents evoked by metal ions / effect on Ca^2+-evoked currents: each at 100 μM
T1 construct: ID; No. 4; expressed in transfected cells; host or cells: Xenopus laevis oocytes injected with synthetic cRNA of the cloned rat cDNA
T1 sequence (Q9R186 41-767): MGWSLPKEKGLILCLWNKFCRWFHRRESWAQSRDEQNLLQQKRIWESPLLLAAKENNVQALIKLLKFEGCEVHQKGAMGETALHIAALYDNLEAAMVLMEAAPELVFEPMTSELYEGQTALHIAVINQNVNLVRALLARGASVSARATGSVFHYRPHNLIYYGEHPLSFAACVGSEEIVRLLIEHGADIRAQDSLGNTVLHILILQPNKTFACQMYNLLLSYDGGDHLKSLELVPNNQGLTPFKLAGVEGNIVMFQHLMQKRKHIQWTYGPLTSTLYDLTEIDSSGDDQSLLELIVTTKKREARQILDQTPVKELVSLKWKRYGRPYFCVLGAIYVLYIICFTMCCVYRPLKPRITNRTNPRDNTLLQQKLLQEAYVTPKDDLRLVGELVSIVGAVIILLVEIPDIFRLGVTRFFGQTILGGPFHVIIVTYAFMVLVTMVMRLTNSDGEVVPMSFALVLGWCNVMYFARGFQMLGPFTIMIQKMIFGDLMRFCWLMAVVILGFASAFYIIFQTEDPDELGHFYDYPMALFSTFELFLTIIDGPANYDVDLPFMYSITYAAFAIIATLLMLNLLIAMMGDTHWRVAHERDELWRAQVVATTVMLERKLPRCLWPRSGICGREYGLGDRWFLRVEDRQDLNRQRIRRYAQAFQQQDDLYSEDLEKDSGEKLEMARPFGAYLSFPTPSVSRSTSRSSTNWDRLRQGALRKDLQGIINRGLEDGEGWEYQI
Method: (§1) Two-microelectrode voltage clamp experiments were performed using standard techniques (see Chen et al., J. Biol. Chem. 274:2773–2779 (1999)) using a commercial amplifier and pCLAMP software (Version 7, Axon Instruments, Inc., Foster City, Calif.). An oocyte was introduced into the chamber containing Ca^2+-free solution and was incubated for about 3 minutes before being clamped at −50 mV and subjected to measurements. In experiments involving voltage ramps or jumps, whole-cell current and voltage were recorded by digitizing at 300 μs/sample and by Bessel filtering at 10 kHz. When recording currents at a holding potential, digitization at 0.2 s/sample and filtering at 20 Hz were employed. Voltage ramping consisted of pre-holding at −150 mV for 200 ms to eliminate capacitive currents and a subsequent linear increase from −150 to +50 mV, with a total duration of […]. Voltage jumping consisted of 150 ms voltage pulses of between −140 and +60 mV, in increments of +20 mV. Steady-state currents were obtained as the average values in the interval from 135 to 145 ms after the initiation of the voltage pulses. For experiments involving voltage-clamped ^45Ca^2+ uptake, Ca^2+-evoked currents and uptake of ^45Ca^2+ were simultaneously measured at −50 mV, using a method similar to that described in Chen et al. (cited above).

[3] = target: T1, CaT1; test: ^45Ca^2+ uptake assay in Xenopus laevis oocytes expressing CaT1; assay type: cell-based; conditions: for inhibition of ^45Ca^2+ uptake: cation 10 mM; for inhibition of ^45Ca^2+ uptake by di- and trivalent cations: 1 mM Ca^2+, cation 100 μM
Method: ^45Ca^2+ uptake assay—Defolliculated Xenopus laevis oocytes were injected with either 50 nl of water or RNA. ^45Ca^2+ uptake was assayed 3 days after injection of poly(A)^+ or 1–3 days a injection of synthetic complementary RNA (cRNA). For expression cloning, oocytes were incubated in modified Barth's solution supplemented with 1 mM SrCl2 (to avoid excessive loading of oocytes with Ca^2+) as well as penicillin, streptomycin and gentamycin at 1 mg/ml. Standard uptake solution contained the following components (in mM): NaCl 100, KCl 2, MgCl2 1, CaCl2 1 (including ^45Ca^2+), Hepes 10, pH 7.5. Uptake was performed at room temperature for 30 minutes (for the expression cloning procedure, 2 hour uptakes were employed), and oocytes were washed 6 times with ice-cold uptake medium plus 20 mM MgCl2. […] Control experiments were performed with the appropriate ethanol and DMSO concentrations. Unless stated specifically, data are presented as means obtained from at least three experiments with 7 to 10 oocytes per group with standard error of the mean (S.E.M.) as the index of dispersion. Statistical significance was defined as having a P value of less than 0.05 as determined by Student's t-test.

[4] = system: endogenous Ca^2+-activated chloride-channel currents; test: Block of the peak current in voltage-clamped oocytes by chloride channel blockers; assay type: cell-based, Xenopus laevis; conditions: 5 mM Ca^2+; holding potential −50 mV
Method: as §1, with “above). […]” for “above).”

| Structure (SMILES) | currents evoked by metal ions [2] | effect on Ca^2+-evoked currents [2] | inhibition of ^45Ca^2+ uptake by di- and trivalent cations [3] | other results |
| --- | --- | --- | --- | --- |
| C=C1/C(=C\C=C2/CCC[C@]3(C)[C@@H]([C@H](C)CCCC(C)(C)O)CC[C@@H]23)C[C@@H](O)C[C@@H]1O [1,25-dihydroxyvitamin D3] | – | – | – | regulation of CaT1 mRNA in rat duodenum [1]: not regulated |
| [Ba+2] [Ba^2+] | – | – | – | current as percentage of the current evoked by 5 mM Ca^2+ [2]: 12±2%; inhibition of ^45Ca^2+ uptake [3]: only slight inhibitory effects |
| [Ca+2] [Ca^2+] | – | – | – | plateau value of inward current ([2]; 5 mM Ca^2+, holding potential −50 mV): 20–50 nA; Km ([3]; CaT1 expressed in oocytes, read-out: apparent Michaelis constant (Km) of Ca^2+ uptake): 440 ± 70 µM |
| COc1cc(CNC(=O)CCCC/C=C/C(C)C)ccc1O [Capsaicin, capsaicin] | – | – | – | stimulation of CaT1-mediated ^45Ca^2+ uptake in oocytes ([3]; capsaicin up to 50 μM): did not stimulate |
| [Cd+2] [Cd^2+] | did not evoke measurable currents | inhibited | marked to moderate inhibition | – |
| [Co+2] [Co^2+] | did not evoke measurable currents | inhibited | marked to moderate inhibition | – |
| [Cu+2] [Cu^2+] | did not evoke measurable currents | inhibited | marked to moderate inhibition | – |
| O=C(O)CN(CCOCCOCCN(CC(=O)O)CC(=O)O)CC(=O)O [EGTA, ethylene glycol-bis(β-aminoethylether)-N,N,N′,N′-tetraacetic acid] | – | – | – | effect on overshoot of Ca^2+-evoked inward current ([2]; EGTA injected to a final concentration of 1–2 mM, −50 mV): abolished the overshoot; increase in Ca^2+ uptake ([3]; EGTA injected into oocytes to a final concentration of 1–2 mM): three- to five-fold increase |
| [Fe+3] [Fe^3+] | did not evoke measurable currents | no observable effects | no significant effects | – |
| [Gd+3] [Gd^3+] | did not evoke measurable currents | inhibited | marked to moderate inhibition | – |
| [La+3] [La^3+] | did not evoke measurable currents | inhibited | marked to moderate inhibition | – |
| [Mg+2] [Mg^2+] | – | – | – | blocker of CaT1 [2]: nor an effective blocker; substrate of CaT1 ([2]; up to 20 mM): neither a substrate; inhibition of ^45Ca^2+ uptake [3]: no significant inhibition |
| [Mn+2] [Mn^2+] | did not evoke measurable currents | no observable effects | no significant effects | – |
| [Na+] [Na^+] | – | – | – | Ca^2+-evoked currents in the presence versus absence of Na^+ ([2]; 100 mM Na^+): slightly lower; Ca^2+ entry with extracellular Na^+ ([3]; non-clamped oocytes, Ca^2+ applied for 30 minutes): enhanced |
| [Ni+2] [Ni^2+] | did not evoke measurable currents | inhibited | – | – |
| [Pb+2] [Pb^2+] | did not evoke measurable currents | inhibited | marked to moderate inhibition | – |
| [Sr+2] [Sr^2+] | – | – | – | current as percentage of the current evoked by 5 mM Ca^2+ [2]: 20±4%; inhibition of ^45Ca^2+ uptake [3]: only slight inhibitory effects |
| [Zn+2] [Zn^2+] | did not evoke measurable currents | no observable effects | – | – |
| O=C(O)c1ccccc1Nc1cccc(C(F)(F)F)c1 [flufenamate] | – | – | – | block of the peak current [4]: could be blocked |
| C/C=C(/C)C(=O)O[C@H]1C(C)=C2[C@H]([C@@H]1OC(=O)CCCCCCC)[C@@](C)(OC(C)=O)C[C@H](OC(=O)CCC)[C@@]1(O)[C@H]2OC(=O)[C@@]1(C)O [thapsigargin] | – | – | – | CaT1-mediated Ca^2+ activity relative to its baseline activity ([3]; depletion of calcium stores by thapsigargin treatment): about 20% |
